Laboratory results as given in paper PMC6695747, “Primaquine and Chloroquine Fumardiamides as Promising Antiplasmodial Agents” (Molecules, 2019).
Where two headings read alike, the source gives them in different places.

Assays:
[1] = test system: P. falciparum PfDd2 (CQ-resistant) erythrocytic stages; assay: In vitro drug sensitivity assay (HRP2-ELISA) against erythrocytic stages, strain Dd2; assay type: cell-based; conditions: Plasmodium falciparum, 72 h, read-out: IC50 PfDd2
Description: (§1) Antiplasmodial activity of fumardiamides 1–6 and 11–16 was tested in a drug sensitivity assay against two laboratory P. falciparum strains (3D7—CQ-sensitive, and Dd2—CQ-resistant), as previously described, using the histidine-rich protein 2 (HRP2) assay. In brief, 96-well plates were pre-coated with the tested compounds in a three-fold dilution before ring stage parasites were added in complete culture medium at a hematocrit of 1.5% and a parasitaemia of 0.05%. After three days of incubation at 37 °C, 5% CO2, and 5% oxygen, plates were frozen until analyzed by HRP2-ELISA. All compounds were evaluated in duplicate in at least two independent experiments. The IC50 was determined by analysing the nonlinear regression of log concentration-response curves using the drc-package v0.9.0 of R v2.6.1 [27].

[2] = test system: P. falciparum Pf3D7 (CQ-sensitive) erythrocytic stages; assay: In vitro drug sensitivity assay (HRP2-ELISA) against erythrocytic stages, strain 3D7; assay type: cell-based; conditions: Plasmodium falciparum, 72 h, read-out: IC50 Pf3D7
Description: as §1

[3] = test system: HEK293T (non-tumour embryonic kidney); assay: Cytotoxicity MTT assay, HEK293T; assay type: cell-based; conditions: Homo sapiens, HEK-293T, read-out: IC50 HEK293T
Description: (§2) The experiments were carried out on 2 human cell lines: MCF-7 (breast carcinoma) and HEK293T (embryonic kidney). MCF-7 and HEK293T cells were cultured as monolayers and maintained in Dulbecco’s modified Eagle medium (DMEM), supplemented with 10% fetal bovine serum (FBS), 2 mM L-glutamine, 100 U/mL penicillin, and 100 μg/mL streptomycin in a humidified atmosphere with 5% CO2 at 37 °C. The panel cell lines were inoculated in parallel onto a series of standard 96-well microtiter plates on day 0, at 1 × 10^4 to 3 × 10^4 cells/mL, depending on the doubling time of a specific cell line. Test compounds were then added in five 10-fold dilutions (10^−8 to 10^−4 M) alone or in combination with 6-AN (c = 1 µM) and incubated for a further 72 hours. Working dilutions were freshly prepared on the day of the testing.
(§3) After 72 hours of incubation, the cell growth rate was evaluated by performing the MTT assay. The absorbance was directly proportional to cell viability. Each test point was performed in quadruplicate in three individual experiments. The IC50 values were calculated from the dose–response curves using linear regression analysis. Each result is a mean value from at least two separate experiments.

[4] = test system: P. berghei hepatic stages; assay: In vitro activity against P. berghei hepatic stages (luciferase parasite load in Huh7 cells); assay type: cell-based; conditions: Plasmodium berghei, Huh-7, read-out: IC50 P. bergei
Description: In vitro activity of the tested compounds against the liver stage of P. berghei infection was assessed as previously described. […] Next, 10 mM stock solutions of test compounds were prepared in DMSO and were serially diluted in infection medium, i.e., culture medium supplemented with gentamicin (50 μg/mL) and amphotericin B (0.8 μg/mL), in order to obtain the test concentrations.
To assess the effect of each compound concentration in cell viability, at 46 hours post-infection (hpi), cultures were incubated with Alamar Blue (Thermo Fisher Scientific, Waltham, MA, USA), according to the manufacturer’s recommendations. Parasite load was then assessed by the bioluminescence assay (Biotium, Fremont, CA, USA), using the multi-plate reader Infinite M200 (Tecan, Männedorf, Switzerland). Nonlinear regression analysis was employed to fit the normalized results of the dose–response curves, and IC50 values were determined using GraphPad Prism 6.0 (GraphPad Software, La Jolla California USA).

[5] = test system: MCF-7 (breast adenocarcinoma); assay: Cytotoxicity MTT assay, MCF-7; assay type: cell-based; conditions: Homo sapiens, read-out: IC50 MCF-7
Description: as §2, §3

[6] = parameters: method as in PMID 24360369; conditions: cited from earlier work
[7] = erythrocytic stages, CQ-resistant strain, three days of incubation, HRP2-ELISA
[8] = erythrocytic stages, CQ-sensitive strain, three days of incubation, HRP2-ELISA

Structure (SMILES) | IC50 [1, 7] | IC50 [2, 8] | IC50 [4] | further results
COc1cc(NC(C)CCCNC(=O)/C=C/C(=O)Nc2cccc(F)c2)c2ncccc2c1 (stereo not shown) [Compound 1] | 20 µM | 13800 nM |  | 
COc1cc(NC(C)CCCNC(=O)/C=C/C(=O)Nc2ccc(C(F)(F)F)cc2)c2ncccc2c1 (stereo not shown) [Compound 6] | 18.4 µM | 13000 nM | 110 ± 20 nM | IC50 ([3]; alone, 72 hours, MTT): ≥ 100 µM; IC50 ([5]; MCF7, alone, 72 hours, MTT): ≥ 100 µM
NC(=O)c1ccc(N)nc1 [Compound 6-AN, 6-aminonicotinamide, reference compound] |  |  |  | IC50 ([3]; 72 h): 10 ± 7 µM; IC50 ([5]; MCF7, 72 h): 2 ± 0.3 µM
O=C(/C=C/C(=O)Nc1ccc(C(F)(F)F)cc1)NCCCCNc1ccnc2cc(Cl)ccc12 [Compound 16, (2E)-N’-{4-[(7-chloroquinolin-4-yl)amino]butyl}-N-[4-(trifluoromethyl)phenyl]but-2-enediamide] | 0.379 µM | 35 nM |  | melting point: 270 °C (dec.)
COc1cc(NC(C)CCCNC(=O)/C=C/C(=O)Nc2cccc(Cl)c2)c2ncccc2c1 (stereo not shown) [Compound 3] | 13.6 µM | > 13000 nM | 270 ± 60 nM | 
O=C(/C=C/C(=O)Nc1cccc(C(F)(F)F)c1)NCCCCNc1ccnc2cc(Cl)ccc12 [Compound 15, (2E)-N’-{4-[(7-chloroquinolin-4-yl)amino]butyl}-N-[3-(trifluoromethyl)phenyl]but-2-enediamide] | 3.22 µM | 194 nM |  | 
O=C(/C=C/C(=O)Nc1ccc(Cl)cc1)NCCCCNc1ccnc2cc(Cl)ccc12 [Compound 14, (2E)-N-(4-chlorophenyl)-N’-{4-[(7-chloroquinolin-4-yl)amino]butyl}but-2-enediamide] | 0.89 µM | 35 nM |  | melting point: 237 °C (dec.)
COc1cc(NC(C)CCCN)c2ncccc2c1 (stereo not shown) [PQ, primaquine] | 1.82 µM | 1990 nM | 8400 ± 3400 nM | 
O=C(/C=C/C(=O)Nc1ccc(F)cc1)NCCCCNc1ccnc2cc(Cl)ccc12 [Compound 12, (2E)-N’-{4-[(7-chloroquinolin-4-yl)amino]butyl}-N-(4-fluorophenyl)but-2-enediamide] | 1.88 µM | 67 nM |  | melting point: 239 °C (dec.)
O=C(/C=C/C(=O)Nc1cccc(Cl)c1)NCCCCNc1ccnc2cc(Cl)ccc12 [Compound 13, (2E)-N-(3-chlorophenyl)-N’-{4-[(7-chloroquinolin-4-yl)amino]butyl}but-2-enediamide] | 6.96 µM | 83 nM |  | 
O=C(/C=C/C(=O)Nc1cccc(F)c1)NCCCCNc1ccnc2cc(Cl)ccc12 [Compound 11, (2E)-N’-{4-[(7-chloroquinolin-4-yl)amino]butyl}-N-(3-fluorophenyl)but-2-enediamide] | 7.02 µM | 144 nM |  | 
COc1cc(NC(C)CCCNC(=O)/C=C/C(=O)Nc2ccc(Cl)cc2)c2ncccc2c1 (stereo not shown) [Compound 4] | > 13 µM | > 13000 nM | 390 ± 10 nM | 
COc1cc(NC(C)CCCNC(=O)/C=C/C(=O)Nc2cccc(C(F)(F)F)c2)c2ncccc2c1 (stereo not shown) [Compound 5] | 10.7 µM | 13900 nM | 270 ± 80 nM | IC50 ([3]; alone, 72 hours, MTT): ≥ 100 µM; IC50 ([5]; MCF7, alone, 72 hours, MTT): ≥ 100 µM
COc1cc(C)c2c(Oc3cccc(C(F)(F)F)c3)c(OC)cc(NC(C)CCCN)c2n1 (stereo not shown) [TQ, Tafenoquine] |  |  |  | elimination half-life [6]: approximately 15 days
COc1cc(NC(C)CCCNC(=O)/C=C/C(=O)Nc2ccc(F)cc2)c2ncccc2c1 (stereo not shown) [Compound 2] | > 13 µM | 7740 nM |  | 
CCN(CC)CCCC(C)Nc1ccnc2cc(Cl)ccc12 (stereo not shown) [CQ, chloroquine] |  |  |  | IC50 [1]: 0.241 µM; IC50 [2]: 3.7 nM
